Data published in PMC6231127, “The structure of the deubiquitinase USP15 reveals a misaligned catalytic triad and an open ubiquitin-binding channel” (The Journal of Biological Chemistry, 2018).

Experiments:
[1] = molecular target: T1, FL-USP15 (Homo sapiens, UniProt Q9Y4E8); assay: linear diubiquitin gel shift cleavage assay (SDS-PAGE, ImageJ); type: biochemical
T1 sequence (Q9Y4E8 2-952 isoform Q9Y4E8-2): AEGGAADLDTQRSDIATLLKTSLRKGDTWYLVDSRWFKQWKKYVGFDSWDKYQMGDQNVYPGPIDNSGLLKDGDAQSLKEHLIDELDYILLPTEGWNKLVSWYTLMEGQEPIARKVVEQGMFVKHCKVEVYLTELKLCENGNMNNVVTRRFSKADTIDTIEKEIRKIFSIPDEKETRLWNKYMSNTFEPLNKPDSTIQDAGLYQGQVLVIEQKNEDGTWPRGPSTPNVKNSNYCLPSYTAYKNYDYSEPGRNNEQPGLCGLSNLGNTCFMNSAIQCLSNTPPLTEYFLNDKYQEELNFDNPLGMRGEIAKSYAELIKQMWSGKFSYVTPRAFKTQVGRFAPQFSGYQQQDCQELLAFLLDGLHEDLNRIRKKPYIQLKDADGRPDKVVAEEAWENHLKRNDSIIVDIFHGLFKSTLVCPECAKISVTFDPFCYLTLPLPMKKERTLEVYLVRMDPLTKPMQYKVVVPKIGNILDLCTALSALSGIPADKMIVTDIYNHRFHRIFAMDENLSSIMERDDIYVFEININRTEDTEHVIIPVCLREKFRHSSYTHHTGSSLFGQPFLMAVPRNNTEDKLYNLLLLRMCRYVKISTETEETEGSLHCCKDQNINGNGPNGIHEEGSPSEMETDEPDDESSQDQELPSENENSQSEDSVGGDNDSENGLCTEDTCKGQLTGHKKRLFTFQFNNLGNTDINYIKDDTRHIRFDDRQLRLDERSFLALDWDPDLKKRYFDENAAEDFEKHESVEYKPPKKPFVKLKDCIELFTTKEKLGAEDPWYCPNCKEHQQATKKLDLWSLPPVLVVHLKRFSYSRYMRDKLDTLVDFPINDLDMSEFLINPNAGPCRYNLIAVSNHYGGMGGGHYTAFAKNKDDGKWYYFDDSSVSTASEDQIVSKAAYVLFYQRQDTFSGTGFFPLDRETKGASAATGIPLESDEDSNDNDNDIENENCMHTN

[2] = molecular target: T2, USP15-D1D2 (Homo sapiens, UniProt Q9Y4E8, DEL469-785); assay: X-ray crystal structure of complex, […] Å; type: binding; settings: co-crystal, 0.1 M Na-Hepes pH 7.0, 14% MPD, 20 °C; S1' site near BL2 loop; ligand density in one of two copies
T2 construct: two copies in the asymmetric unit

O=C1c2c(O)ccc(O)c2C(=O)c2c(NCCNCCO)ccc(NCCNCCO)c21 [mitoxantrone, 1,4-dihydroxy-5,8-bis[2-(2-hydroxyethylamino)ethylamino]anthracene-9,10-dione] was tested, and the IC50 [1] was 33 ± 11 µM and the “X-ray crystal structure of complex, 2.09 Å” value [2] was “This USP15–mitoxantrone complex structure revealed predominantly hydrophobic interactions between mitoxantrone and USP15 residues”.
